Key:
[1] = Solubility determination in oil (cottonseed oil, sesame oil); conditions: heating temp. 60 °C
Method: A known amount of test substance (˜40 mg) was weighed into the vial, 100 μL of oil was added and heated to 60° C. and then system was slurried to reach equilibrium. […] Extra oil was added into the vial once compound precipitated out and then the system was re-equilibrated at 1000 rpm at room temperature (25° C.). Final concentration was determined by HPLC method as described below in Table 6a and 6b.

[2] = Plasma stability assay, rat plasma; type: in vitro ADME; conditions: 37° C., 10 μM
[3] = Physical characterization of solid state drug substance (PLM, XRPD, DSC, TGA); type: physicochemical; conditions: for Thermal Gravimetric Analysis, weight loss: at 120° C., heated from room temperature at 10° C./minute
Method: The analysis of the physical characteristics of drug substances that were in a solid state was conducted using polarized light microscopy (PLM), X-ray powder diffractometer (XRPD) assessment, Differential Scanning calorimetry (DSC) and Thermal Gravimetric Analysis (TGA). For PLM, samples were dispersed in immersion oil and were observed using an ocular lens (10×) and objective lens (20×) under crossed polarizers. For XRPD, samples were run on a diffractometer using the following method: Tube—Cu: K-alpha (λ=1.54179 Å); Generator—Voltage 40 kV, Current 40 mA; Scan scope—3 to 40°; sample rotation speed—15 rpm; scanning rate—10 deg/min. For DSC, ˜1 mg of sample was tested using a crimped aluminum pan and covered by a lid with a hole, heated from room temperature to 300° C. at a speed of 10° C./minute. For TGA, 2-5 mg of sample was placed in an open platinum pan and heated from room temperature to 300° C. at a rate of 10° C./minute.

[4] = Polymorph screening of solid state drug substances; conditions: for XRPD results (Dried): stirred 50 °C 72 hours, solids dried; for Visual observation 50° C. / Visual observation RT: target conc. 100 mg/ml; for Comment: stability of initial crystal form (pattern A): polymorph screen over Heptane
[5] = MTBE, Isopropanol, EtOAc, Acetone

SMILES: CCCCCCCCCCCCCCCCOC(=O)Oc1ccc2c3c1O[C@H]1C(=O)CC[C@@]4(O)C(C2)N(CC2CC2)CC[C@]314 [Compound 21, (4aS,7aR,12bS)-3-(cyclopropylmethyl)-4a-hydroxy-7-oxo-2,3,4,4a,5,6,7,7a-octahydro-1H-4,12-methanobenzofuro[3,2-e]isoquinolin-9-yl hexadecyl carbonate]
- Approximate Solubility (mg/mL) in Excipient: Sesame oil ([1]; obs. temp. 40 °C): 101 to 134.5 mg/mL
- % remaining at time point in minutes, 0 min [2]: 100%
- % remaining at time point in minutes, 15 min [2]: 73.5%
- % remaining at time point in minutes, 120 min [2]: 68.3%
- % remaining at time point in minutes, 480 min [2]: 59.8%
- % remaining at time point in minutes, 1440 min [2]: 40.9%
- X-ray Powder Diffraction ([3]; solid state drug substance, XRPD/PLM): Crystal Form with partial
- XRPD results (Dried) ([4]; Acetone): Pattern A
- Visual observation 50° C. ([4]; Acetone): Clear
- Visual observation RT ([4]; Acetone): Slurry
- XRPD results (Dried) ([4]; EtOAc): Pattern A
- Visual observation 50° C. ([4]; EtOAc): Clear
- Visual observation RT ([4]; EtOAc): Slurry
- XRPD results (Dried) ([4]; Heptane): Pattern A
- Visual observation 50° C. ([4]; Heptane): Clear
- Visual observation RT ([4]; Heptane): Slurry
- XRPD results (Dried) ([4]; Isopropanol): Pattern A
- Visual observation 50° C. ([4]; Isopropanol): Clear
- Visual observation RT ([4]; Isopropanol): Slurry
- XRPD results (Dried) ([4]; MTBE): Pattern A
- Visual observation 50° C. ([4]; MTBE): Clear
- Visual observation RT ([4]; MTBE): Clear
- Comment: stability of initial crystal form (pattern A) [4, 5]: stable form. Same crystal form

SMILES: C=C1CC[C@@]2(O)C3Cc4ccc(OC(=O)OCCCCCCCCCCCCCC)c5c4[C@@]2(CCN3CC2CC2)[C@H]1O5 [Compound 31, (4aS,7aS,12bS)-3-(cyclopropylmethyl)-4a-hydroxy-7-methylene-2,3,4,4a,5,6,7,7a-octahydro-1H-4,12-methanobenzofuro[3,2-e]isoquinolin-9-yl tetradecyl carbonate]
- Approximate Solubility (mg/mL) in Excipient: Sesame oil ([1]; obs. temp. 25 °C): >413.5 mg/mL
- % remaining at time point in minutes, 0 min [2]: 100%
- % remaining at time point in minutes, 15 min [2]: 123.2%
- % remaining at time point in minutes, 120 min [2]: 73.5%
- % remaining at time point in minutes, 480 min [2]: 54.4%
- % remaining at time point in minutes, 1440 min [2]: 46.4%
- Thermal Gravimetric Analysis, weight loss [3]: Weight loss of 0.7244%
- XRPD results (Dried) ([4]; Acetone): Pattern A
- Visual observation 50° C. ([4]; Acetone): Clear
- Visual observation RT ([4]; Acetone): Slurry
- XRPD results (Dried) ([4]; EtOAc): Pattern A
- Visual observation 50° C. ([4]; EtOAc): Clear
- Visual observation RT ([4]; EtOAc): Clear
- XRPD results (Dried) ([4]; Heptane): Pattern A
- Visual observation 50° C. ([4]; Heptane): Clear
- Visual observation RT ([4]; Heptane): Slurry
- XRPD results (Dried) ([4]; Isopropanol): Pattern A
- Visual observation 50° C. ([4]; Isopropanol): Clear
- Visual observation RT ([4]; Isopropanol): Clear
- XRPD results (Dried) ([4]; MTBE): Pattern A
- Visual observation 50° C. ([4]; MTBE): Clear
- Visual observation RT ([4]; MTBE): Slurry

SMILES: CCCCCCCCCCCCCCCC(=O)Oc1ccc2c3c1O[C@H]1C(=O)CC[C@@]4(O)C(C2)N(CC2CC2)CC[C@]314 [Compound 55, (4aS,7aR,12bS)-3-(cyclopropylmethyl)-4a-hydroxy-7-oxo-2,3,4,4a,5,6,7,7a-octahydro-1H-4,12-methanobenzofuro[3,2-e]isoquinolin-9-yl palmitate]
- Approximate Solubility (mg/mL) in Excipient: Ethanol ([1]; Ethanol, obs. temp. 40 °C): >401.1 mg/mL
- Approximate Solubility (mg/mL) in Excipient: Sesame oil ([1]; obs. temp. 40 °C): >394.8 mg/mL
- % remaining at time point in minutes, 0 min [2]: 100%
- % remaining at time point in minutes, 15 min [2]: 77.3%
- % remaining at time point in minutes, 120 min [2]: 47.2%
- % remaining at time point in minutes, 480 min [2]: 27.1%
- % remaining at time point in minutes, 1440 min [2]: 15.6%
- Thermal Gravimetric Analysis, weight loss [3]: Weight loss of 0.2597%
- XRPD results (Dried) ([4]; Acetone): Pattern B
- Visual observation 50° C. ([4]; Acetone): Clear
- Visual observation RT ([4]; Acetone): Slurry
- XRPD results (Dried) ([4]; EtOAc): Pattern B
- Visual observation 50° C. ([4]; EtOAc): Clear
- Visual observation RT ([4]; EtOAc): Slurry
- XRPD results (Dried) ([4]; Heptane): Pattern B
- Visual observation 50° C. ([4]; Heptane): Clear
- Visual observation RT ([4]; Heptane): Slurry
- XRPD results (Dried) ([4]; Isopropanol): Pattern B
- Visual observation 50° C. ([4]; Isopropanol): Clear
- Visual observation RT ([4]; Isopropanol): Slurry
- XRPD results (Dried) ([4]; MTBE): Pattern B
- Visual observation 50° C. ([4]; MTBE): Clear
- Visual observation RT ([4]; MTBE): Clear
- Comment: stability of initial crystal form (pattern A) [4, 5]: Cannot determine which crystal form
